Assay results taken from patent US20240158446A1, “CYCLIC COMPOUND HAVING SELECTIVE INHIBITORY ACTION ON KRAS OVER HRAS AND NRAS” (CHUGAI SEIYAKU KABUSHIKI KAISHA, priority 2021, published 2024).
Read-outs that look alike come from different tables or passages of the source.

What was measured:
[1] = biological target: GDP-bound KRAS wild-type protein (Homo sapiens, UniProt P01116); assay: Binding to KRAS by surface plasmon resonance (SPR), Single Cycle Kinetics; settings: GDP-bound KRAS wild-type protein, read-out: KRAS KD
GDP-bound KRAS wild-type protein, sequence (P01116 whole entry): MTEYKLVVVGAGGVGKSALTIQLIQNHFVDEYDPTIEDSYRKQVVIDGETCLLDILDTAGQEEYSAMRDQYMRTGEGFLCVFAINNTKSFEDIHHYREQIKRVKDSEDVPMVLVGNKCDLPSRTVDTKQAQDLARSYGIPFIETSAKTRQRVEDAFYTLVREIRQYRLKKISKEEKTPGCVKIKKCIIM

[2] = biological target: GDP-bound HRAS wild-type protein (Homo sapiens, UniProt P01112); assay: Binding to HRAS by surface plasmon resonance (SPR), Single Cycle Kinetics; settings: for HRAS/KRAS (ratio of KD value for HRAS to KD value for KRAS): GDP-bound HRAS wild-type protein vs GDP-bound KRAS wild-type protein; for HRAS/KRAS (ratio of KD value with respect to GDP-bound HRAS wild-type protein to KD value with respect to KRAS): SPR KD ratio HRAS/KRAS, class symbols
GDP-bound HRAS wild-type protein, sequence (P01112 whole entry): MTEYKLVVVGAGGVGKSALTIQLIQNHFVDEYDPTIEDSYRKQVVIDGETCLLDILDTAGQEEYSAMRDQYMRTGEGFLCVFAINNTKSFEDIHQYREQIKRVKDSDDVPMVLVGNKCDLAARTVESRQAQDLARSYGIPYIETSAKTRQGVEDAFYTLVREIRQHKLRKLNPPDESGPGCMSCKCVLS

[3] = test system: human lung cancer strain NCI-H441;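 also: cell proliferation inhibition after four days measured by CellTiter-Glo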
[4] = biological target: GDP-bound NRAS wild-type protein (Homo sapiens, UniProt P01111); assay: Binding to NRAS by surface plasmon resonance (SPR), Single Cycle Kinetics; settings: for NRAS/KRAS (ratio of KD value for NRAS to KD value for KRAS): GDP-bound NRAS wild-type protein vs GDP-bound KRAS wild-type protein; for NRAS/KRAS (ratio of KD value with respect to GDP-bound NRAS wild-type protein to KD value with respect to KRAS): SPR KD ratio NRAS/KRAS, class symbols
GDP-bound NRAS wild-type protein, sequence (P01111 whole entry): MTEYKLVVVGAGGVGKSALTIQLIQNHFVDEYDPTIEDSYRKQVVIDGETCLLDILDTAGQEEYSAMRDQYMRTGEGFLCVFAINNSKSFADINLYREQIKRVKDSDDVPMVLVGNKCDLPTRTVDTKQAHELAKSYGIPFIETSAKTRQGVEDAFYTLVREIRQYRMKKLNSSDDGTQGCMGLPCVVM

[5] = SPR Single Cycle Kinetics, 1:1 binding model
[6] = SPR, Single Cycle Kinetics, 1:1 binding model

SMILES: CCC(CC)[C@H]1C(=O)N(C)[C@H](C(=O)N(C)C)CC(=O)N(C)[C@@H](COC)C(=O)N[C@@H]([C@@H](C)CC)C(=O)N(C2CC2)CC(=O)N(C)[C@H]2C/C=C\CCN(C2=O)[C@@H](CC2CCCCC2)C(=O)N(C)CC(=O)N[C@@H](CCc2cc(F)c(C(F)(F)F)c(F)c2)C(=O)N2C[C@H](OC(C)C)C[C@H]2C(=O)NC2(CC(C)(C)C2)C(=O)N1C [PP2515]
- Kd ([1]; SPR, Single Cycle Kinetics): 5.1 nM
- HRAS/KRAS (ratio of KD value for HRAS to KD value for KRAS) ([2]; SPR): A (a compound having 10 or more and less than 20 is denoted as A)
- IC50 [3]: 384 nM
- NRAS/KRAS (ratio of KD value for NRAS to KD value for KRAS) ([4]; SPR): A (a compound having 10 or more and less than 20 is denoted as A)

SMILES: CCCOC[C@H]1C(=O)N[C@@H]([C@@H](C)CC)C(=O)N(C)CC(=O)N(C)[C@H]2C/C=C\CCN(C2=O)[C@@H](Cc2ccc(C)cc2)C(=O)N(C)CC(=O)N[C@@H](CCc2cc(F)c(C(F)(F)F)c(F)c2)C(=O)N2C[C@H](OCC)C[C@H]2C(=O)NC2(CC(C)(C)C2)C(=O)N(C)[C@@H](CC(C)(C)C)C(=O)N(C)[C@H](C(=O)N(C)C)CC(=O)N1C [PP2708]
- Kd [1, 5]: 0.072 nM
- HRAS/KRAS (ratio of KD value with respect to GDP-bound HRAS wild-type protein to KD value with respect to KRAS) [2]: A (a compound having 10 or more and less than 20 is denoted as A)
- IC50 [3]: 5.1 nM
- NRAS/KRAS (ratio of KD value with respect to GDP-bound NRAS wild-type protein to KD value with respect to KRAS) [4]: A (a compound having 10 or more and less than 20 is denoted as A)

SMILES: CC[C@H](C)[C@@H]1NC(=O)[C@H](CC)N(C)C(=O)C[C@@H](C(=O)N(C)C)N(C)C(=O)[C@H](C2CCCC2)N(C)C(=O)C2(CCC2)NC(=O)[C@H](COCCC(C)C)N(C)C(=O)[C@H](CCc2cc(F)c(C(F)(F)F)c(F)c2)NC(=O)CN(C)C(=O)[C@H](Cc2ccc(C(F)(F)F)cc2)N2CC/C=C\C[C@@H](C2=O)N(C)C(=O)CN(C)C1=O [PP1148]
- Kd ([1]; SPR, Single Cycle Kinetics): 1.2 nM
- HRAS/KRAS (ratio of KD value for HRAS to KD value for KRAS) ([2]; SPR): A (a compound having 10 or more and less than 20 is denoted as A)
- IC50 [3]: 357 nM
- NRAS/KRAS (ratio of KD value for NRAS to KD value for KRAS) ([4]; SPR): A (a compound having 10 or more and less than 20 is denoted as A)

SMILES: CCCCCC[C@H]1C(=O)N[C@@H]([C@@H](C)CC)C(=O)N(C)CC(=O)N(C)[C@H]2C/C=C\CCN(C2=O)[C@@H](Cc2ccc(C(F)(F)F)cc2)C(=O)N(C)CC(=O)N[C@@H](CCc2ccc(Cl)c(Cl)c2)C(=O)N2C[C@H](OCC)C[C@H]2C(=O)NC2(CCC2)C(=O)N(C)[C@@H](C2CCCC2)C(=O)N(C)[C@H](C(=O)N(C)C)CC(=O)N1C [PP1252]
- Kd [1, 6]: 0.3 nM
- HRAS/KRAS (ratio of KD value for HRAS to KD value for KRAS) ([2]; SPR, KD ratio class): A (a compound having 10 or more and less than 20 is denoted as A)
- IC50 [3]: 51.2 nM
- NRAS/KRAS (ratio of KD value for NRAS to KD value for KRAS) ([4]; SPR, KD ratio class): AA (a compound having 20 or more is denoted as AA)

SMILES: CCO[C@@H]1C[C@H]2C(=O)NC3(CCC3)C(=O)N(C)[C@@H](C3CCCC3)C(=O)N(C)[C@H](C(=O)N(C)C)CC(=O)N(C)[C@@H](Cc3ccc(Cl)c(Cl)c3)C(=O)N[C@@H]([C@@H](C)CC)C(=O)N(C)CC(=O)N(C)[C@H]3CCCCCN(C3=O)[C@@H](Cc3ccc(C(F)(F)F)cc3)C(=O)N(C)CC(=O)N[C@@H](CCc3cc(F)c(C(F)(F)F)c(F)c3)C(=O)N2C1 [PP1174]
- Kd ([1]; SPR, Single Cycle Kinetics): 1 nM
- HRAS/KRAS (ratio of KD value for HRAS to KD value for KRAS) ([2]; SPR): B (a compound having 3 or more and less than 10 is denoted as B)
- IC50 [3]: 85.2 nM
- NRAS/KRAS (ratio of KD value for NRAS to KD value for KRAS) ([4]; SPR): B (a compound having 3 or more and less than 10 is denoted as B)

SMILES: CCC[C@H]1C(=O)N[C@@H]([C@@H](C)CC)C(=O)N(C2CC2)CC(=O)N(C)[C@H]2C/C=C\CCN(C2=O)[C@@H](Cc2ccc(C(F)F)cc2)C(=O)N(C)CC(=O)N[C@@H](CCc2cc(F)c(C(F)(F)F)c(F)c2)C(=O)N2C[C@H](OCC)C[C@H]2C(=O)NC2(CC(C)(C)C2)C(=O)N(C)[C@@H](C(CC)CC)C(=O)N(C)[C@H](C(=O)N(C)C)CC(=O)N1C [PP2527]
- Kd [1, 5]: 0.65 nM
- HRAS/KRAS (ratio of KD value with respect to GDP-bound HRAS wild-type protein to KD value with respect to KRAS) [2]: A (a compound having 10 or more and less than 20 is denoted as A)
- IC50 [3]: 31 nM
- NRAS/KRAS (ratio of KD value with respect to GDP-bound NRAS wild-type protein to KD value with respect to KRAS) [4]: AA (a compound having 20 or more is denoted as AA)

SMILES: CCOC[C@H]1C(=O)N[C@@H]([C@@H](C)CC)C(=O)N2CCC[C@H]2C(=O)N(C)[C@H]2C/C=C\CCN(C2=O)[C@@H](Cc2ccc(C)cc2)C(=O)N(C)CC(=O)N[C@@H](CCc2cc(F)c(C(F)(F)F)c(F)c2)C(=O)N2C[C@H](OCC)C[C@H]2C(=O)NC2(CC(C)(C)C2)C(=O)N(C)[C@@H](C2CCCC2)C(=O)N(C)[C@H](C(=O)N(C)CC)CC(=O)N1C [PP2428]
- Kd ([1]; SPR, Single Cycle Kinetics): 0.62 nM
- HRAS/KRAS (ratio of KD value for HRAS to KD value for KRAS) ([2]; SPR): A (a compound having 10 or more and less than 20 is denoted as A)
- IC50 [3]: 4.8 nM
- NRAS/KRAS (ratio of KD value for NRAS to KD value for KRAS) ([4]; SPR): A (a compound having 10 or more and less than 20 is denoted as A)

SMILES: CCO[C@@H]1C[C@H]2C(=O)NC3(CCC3)C(=O)N(C)[C@@H](C3CCCC3)C(=O)N(C)[C@H](C(=O)N(C)C)CC(=O)N(C)[C@@H](CC3CCCC3)C(=O)N[C@@H]([C@@H](C)CC)C(=O)N(C)CC(=O)N(C)[C@H]3C/C=C\CCN(C3=O)[C@@H](Cc3ccc(C)cc3)C(=O)N(C)CC(=O)N[C@@H](CCc3cc(F)c(C(F)(F)F)c(F)c3)C(=O)N2C1 [PP1411, (2S,8S,12R,14S,20S,23S,27S,30S,36S,38Z)-20-cyclopentyl-27-(cyclopentylmethyl)-8-[2-[3,5-difluoro-4-(trifluoromethyl)phenyl]ethyl]-12-ethoxy-N,N,4,19,22,26,32,35-octamethyl-30-[(1S)-1-methylpropyl]-3,6,9,15,18,21,25,28,31,34,42-undecaoxo-2-(p-tolylmethyl)spiro[1,4,7,10,16,19,22,26,29,32,35-undecazatricyclo[34.5.1.0^10,14]dotetracont-38-ene-17,1′-cyclobutane]-23-carboxamide]
- Kd [1, 6]: 0.08 nM
- HRAS/KRAS (ratio of KD value for HRAS to KD value for KRAS) ([2]; SPR, KD ratio class): B (a compound having 3 or more and less than 10 is denoted as B)
- IC50 [3]: 6 nM
- NRAS/KRAS (ratio of KD value for NRAS to KD value for KRAS) ([4]; SPR, KD ratio class): A (a compound having 10 or more and less than 20 is denoted as A)

SMILES: CCO[C@@H]1C[C@H]2C(=O)N(C)C3(CC(C)(C)C3)C(=O)N(C)[C@@H](C3CCCC3)C(=O)N(C)[C@H](C(=O)N(C)C)CC(=O)N(C)[C@H]3CCC/C=C/c4ccc(cc4)C[C@@H](C(=O)N(C)CC(=O)N[C@@H](CCc4ccc(Cl)c(Cl)c4)C(=O)N2C1)N1CC/C=C\C[C@@H](C1=O)N(C)C(=O)CN(C)C(=O)[C@H]([C@@H](C)CC)NC3=O [PP3059]
- Kd ([1]; SPR, Single Cycle Kinetics): 0.055 nM
- HRAS/KRAS (ratio of KD value for HRAS to KD value for KRAS) ([2]; SPR): A (a compound having 10 or more and less than 20 is denoted as A)
- IC50 [3]: 2.1 nM
- NRAS/KRAS (ratio of KD value for NRAS to KD value for KRAS) ([4]; SPR): A (a compound having 10 or more and less than 20 is denoted as A)

SMILES: CC[C@H](C)[C@@H]1NC(=O)[C@H](CC(C)C)N(C)C(=O)C[C@@H](C(=O)N(C)C)N(C)C(=O)[C@H](C2CCCC2)N(C)C(=O)C2(CCC2)N(C)C(=O)[C@@H]2CCCN2C(=O)[C@H](CCc2cc(F)c(C(F)(F)F)c(F)c2)NC(=O)CN(C)C(=O)[C@H](Cc2ccc(C)cc2)N2CC/C=C\C[C@@H](C2=O)N(C)C(=O)CN(C)C1=O [PP1791]
- Kd ([1]; SPR, Single Cycle Kinetics): 0.042 nM
- HRAS/KRAS (KD ratio) ([2]; ratio of KD for GDP-bound HRAS wild-type protein to KD for KRAS, SPR): A (a compound having 10 or more and less than 20 is denoted as A)
- IC50 ([3]; read-out: NCI-H441 IC50, NCI-H441 cell proliferation, 4 days, CellTiter-Glo): 3.7 nM
- NRAS/KRAS (KD ratio) ([4]; ratio of KD for GDP-bound NRAS wild-type protein to KD for KRAS, SPR): A (a compound having 10 or more and less than 20 is denoted as A)

SMILES: CCCC[C@H]1C(=O)N[C@@H]([C@@H](C)CC)C(=O)N(C)CC(=O)N(C)[C@H]2C/C=C\CCN(C2=O)[C@@H](Cc2ccc(C(F)(F)F)cc2)C(=O)N(C)CC(=O)N[C@@H](CCc2cc(F)c(C(F)(F)F)c(F)c2)C(=O)N2C[C@H](OCC)C[C@H]2C(=O)NC2(CCC2)C(=O)N(C)[C@@H](C2CCCC2)C(=O)N(C)[C@H](C(=O)N2CCCC2)CC(=O)N1C [PP1396, (2S,8S,12R,14S,20S,23S,27S,30S,36S,38Z)-27-butyl-20-cyclopentyl-8-[2-[3,5-difluoro-4-(trifluoromethyl)phenyl]ethyl]-12-ethoxy-4,19,22,26,32,35-hexamethyl-30-[(1S)-1-methylpropyl]-23-(pyrrolidine-1-carbonyl)-2-[[4-(trifluoromethyl)phenyl]methyl]spiro[1,4,7,10,16,19,22,26,29,32,35-undecazatricyclo[34.5.1.0^10,14]dotetracont-38-ene-17,1′-cyclobutane]-3,6,9,15,18,21,25,28,31,34,42-undecone]
- Kd [1, 6]: 0.14 nM
- HRAS/KRAS (ratio of KD value for HRAS to KD value for KRAS) ([2]; SPR, KD ratio class): A (a compound having 10 or more and less than 20 is denoted as A)
- IC50 [3]: 19.4 nM
- NRAS/KRAS (ratio of KD value for NRAS to KD value for KRAS) ([4]; SPR, KD ratio class): AA (a compound having 20 or more is denoted as AA)

SMILES: CCO[C@@H]1C[C@H]2C(=O)NC3(CC(C)(C)C3)C(=O)N(C)[C@@H](C(CC)CC)C(=O)N(C)[C@H](C(=O)N(C)C)CC(=O)N(C)[C@@H](COC)C(=O)N[C@@H]([C@@H](C)CC)C(=O)N(C3CC3)CC(=O)N(C)[C@H]3C/C=C\CCN(C3=O)[C@@H](CC3CCCCC3)C(=O)N(C)CC(=O)N[C@@H](CCc3cc(F)c(C(F)(F)F)c(F)c3)C(=O)N2C1 [PP2564]
- Kd [1, 5]: 7.6 nM
- HRAS/KRAS (ratio of KD value with respect to GDP-bound HRAS wild-type protein to KD value with respect to KRAS) [2]: A (a compound having 10 or more and less than 20 is denoted as A)
- IC50 [3]: 222 nM
- NRAS/KRAS (ratio of KD value with respect to GDP-bound NRAS wild-type protein to KD value with respect to KRAS) [4]: A (a compound having 10 or more and less than 20 is denoted as A)
